{"source": "paper PMC3551614", "about": "(Journal of the American Chemical Society, 2012)", "molecular_target": "T1, VEGF (Homo sapiens, UniProt P15692)", "T1 sequence (P15692 1-191 isoform P15692-4)": "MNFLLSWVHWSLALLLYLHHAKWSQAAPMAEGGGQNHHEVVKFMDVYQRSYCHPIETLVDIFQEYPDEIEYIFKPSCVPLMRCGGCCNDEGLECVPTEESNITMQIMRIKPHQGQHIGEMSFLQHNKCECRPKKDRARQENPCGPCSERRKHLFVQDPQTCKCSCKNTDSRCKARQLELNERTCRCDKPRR", "assay": "direct FP binding of N-terminal fluorescein derivatives", "details": "domain 2 of VEGFR1 as competitor", "note": "Numbered stars: 1 amine (or outer) side, 2 acyl side, 3 side chain; on linkers, the order of the positions; unused ones are H or OH. Bridge positions count the residues as written; N and C are the ends. Square brackets hold non-standard residues; d marks the D form. Peptide text beside a SMILES is read from it. * marks the point of attachment. 5FAM = O=C1OC2(c3ccc(O)cc3Oc3cc(O)ccc32)c2ccc(C(=O)*)cc21; X1 = O=C([C@H]1CNC[C@@H]1N[*:1])[*:2]; β3hE = N[C@@H](CCC(=O)O)CC(=O)O; β3hN = NC(=O)C[C@H](N)CC(=O)O; β3hL = CC(C)C[C@H](N)CC(=O)O; Nle = CCCC[C@H](N)C(=O)O", "data": [{"smiles": "CCCC[C@@H]1NC(=O)[C@H](C(C)C)NC(=O)[C@H](Cc2c[nH]cn2)NC(=O)[C@H]([C@@H](C)CC)NC(=O)[C@H](CC(=O)O)NC(=O)[C@@H](NC(=O)C[C@H](CC(N)=O)NC(=O)[C@@H]2CCCN2C(=O)C[C@H](CCC(=O)O)NC(=O)[C@@H](NC(=O)c2ccc3c(c2)C(=O)OC32c3ccc(O)cc3Oc3cc(O)ccc32)C(C)C)CSSC[C@@H](C(=O)N[C@@H](Cc2ccccc2)C(=O)N[C@H]2CNC[C@@H]2C(=O)N[C@@H](CCCNC(=N)N)C(=O)N[C@H](CC(N)=O)CC(C)C)NC(=O)[C@H](CCC(=O)O)NC(=O)[C@H](Cc2c[nH]c3ccccc23)NC(=O)C[C@H](CCC(=O)O)NC(=O)[C@H](Cc2c[nH]c3ccccc23)NC1=O", "note": "[Flu-3] (5FAM-V[β3hE]P[β3hN]CDIHV[Nle]W[β3hE]WECF[X1]R[β3hL]-NH2; disulfide 5-15; N-terminus and C-terminus assumed)", "values": [{"measurement": "displacement from VEGF by domain 2 of VEGFR1", "value": "displaces"}]}]}
